Data as given in patent US20220161456A1, “S[…] PRESERVATIVE COMPOSITION COMPRISING POLYMERIC BETAINE AND CARBAMATE” (Troy Corporation, priority 2019, published 2022).

Assays:
Experiment in all cases: EUCAST 96-well plate fungal growth inhibition (MIC)
Type in all cases: cell-based
[1] = system: Aureobasidium pullulans (ATCC #9348); design: key to growth of Aureobasidium pullulans in 96-well plates: (+) in each block indicates growth; (−) indicates no growth, i.e., the inhibitor was effective; conditions: for MIC: Aureobasidium pullulans ATCC 9348, 3 days at 35° C.
Protocol: (§1) (A) 0.17 g of 60% DPAB aqueous solution (ProTek® PBT or Polymeric Betaine EP or Polymeric Betaine Technical Grade Active Ingredient Wood Preservative, Troy Chemical Corporation, Newark, N.J.) was diluted in 9.83 g ethanol by stirring to form a concentrate containing 1% DPAB.
(§2) (B) 0.25 g of 40% IPBC solvent solution (Polyphase® AF-1, Troy Chemical Corporation, Newark, N.J.) was diluted in 9.75 g ethanol by stirring to form a concentrate containing 1% IPBC.
(§3) (C) 21.04 g of 60% DPAB aqueous solution (ProTek® PBT or Polymeric Betaine EP or Polymeric Betaine Technical Grade Active Ingredient Wood Preservative, Troy Chemical Corporation, Newark, N.J.), 6.25 g of 40% IPBC solvent solution (Polyphase AF-1, Troy Chemical Corporation, Newark, N.J.) and 22.74 g of ethanol were mixed and stirred. The resulting concentrate contained 25% polymeric betaine and 5% IPBC. The weight ratio of polymeric betaine to IPBC was 5:1. 0.33 g of this IPBC/polymeric betaine concentrate was diluted in 9.67 g of ethanol to form a use-dilution containing about 0.83% DPAB and 0.17% IPBC.
(§4) Solutions prepared as described above were tested in 96-well plates for their ability to inhibit fungal growth. The solutions were tested according to the EUCAST methodology as described in Rodriguez-Tudela et al. 2006 “Antifungal susceptibility testing in Aspergillus spp. according to EUCAST methodology,” the contents of which are incorporated by reference herein. The solutions were checked for inhibition against fungal organisms Aspergillus niger (ATCC #6275), Aureobasidium pullulans (ATCC #9348), Penicillium funiculosum (ATCC #11797) and Trichoderma pseudokoningii (ATCC #26801). This method is described below:
(§5) (1) Prepared preservative test wells by adding 2 microliters of each 1% preservative solution formulation to 198 microliters of 2xRPMI-MOPS-2% Glucose in each column “1” in duplicate.
(§6) (2) Added 100 microliters of 2xRPMI-MOPS-2% Glucose to the remaining columns.
(§7) (3) Performed 2-fold dilutions down the columns to column “12”.
(§8) (4) Prepared suspension of microorganisms from a 3-5 day old PDA slants by flooding slant with 1 mL deionized water and 0.1% Tween-20.
(§9) (5) Suspension strength was determined via hemocytometer then adjusted to 1×10^6 spores/mL with sterile deionized water.
(§10) (6) Added 100 microliters of the microorganism suspension to all wells except for sterility (−) controls containing test media. The water used to prepare the fungal suspensions was added to sterility (−) control wells.
(§11) (7) The inoculated 96-well plates were incubated for 3 days at 35° C.
(§12) (8) After incubation, fungal growth was evaluated by visual growth in test wells. Minimum inhibitory concentration (MIC) is recorded in ppm and defined as the lowest concentration of fungicide that produces no visual changes in turbidity in the test wells. (+) in each block indicates growth and (−) indicates no growth, i.e., the inhibitor was effective.
(§13) (9) The experiment is only considered valid if growth is observed in the positive (+) control wells and no growth is observed in the negative control wells.
(§14) In order to show more directly the possible synergy in the invention, the results are presented by applying the Synergy Index (S.I.). Minimal inhibitory concentration of the composition of this invention (mixture of DPAB and IPBC) are analyzed using the following equation:
(§15) MCA=Concentration of compound A in parts per million, acting alone, which prevents fungal growth at the reference point
(§16) MCA′=Concentration of compound A in parts per million, in the mixture, which prevents fungal growth at the reference point
(§17) MCB=Concentration of compound B in parts per million, acting alone, which prevents fungal growth at the reference point
(§18) MCB′=Concentration of compound B in parts per million, in the mixture, which prevents fungal growth at the reference point
(§19) When SI is greater than 2, antagonism is indicated. […] When SI is between 0.5 and 2, the action of biocides is additive.

[2] = system: Trichoderma pseudokoningii (ATCC #26801); design: key to growth of Trichoderma pseudokoningii in 96-well plates: (+) in each block indicates growth; (−) indicates no growth, i.e., the inhibitor was effective; conditions: for MIC: Trichoderma pseudokoningii ATCC 26801, 3 days at 35° C.
Protocol: as §1, §2, §3, §4, §5, §6, §7, §8, §9, §10, §11, §12, §13, §14, §15, §16, §17, §18, §19

[3] = system: Penicillium funiculosum (ATCC #11797); design: key to growth of Penicillium funiculosum in 96-well plates: (+) in each block indicates growth; (−) indicates no growth, i.e., the inhibitor was effective; conditions: for MIC: Penicillium funiculosum ATCC 11797, 3 days at 35° C.
Protocol: as §1, §2, §3, §4, §5, §6, §7, §8, §9, §10, §11
(8) After incubation, fungal growth was evaluated by visual growth in test wells. Minimum inhibitory concentration (MIC) is recorded in ppm and defined as the lowest concentration of fungicide that produces no visual changes in turbidity in the test wells.
Minimal inhibitory concentration of the composition of this invention (mixture of DPAB and IPBC) are analyzed using the following equation:
as §15, §16, §17, §18, §19

Compound | MIC [1] [ppm] | growth of Aureobasidium pullulans in 96-well plates ([1]; well 1, 50.00 ppm active) | growth of Aureobasidium pullulans in 96-well plates ([1]; well 2, 25.00 ppm active) | growth of Aureobasidium pullulans in 96-well plates ([1]; well 3, 12.50 ppm active) | growth of Aureobasidium pullulans in 96-well plates ([1]; well 4, 6.25 ppm active) | growth of Aureobasidium pullulans in 96-well plates ([1]; well 5, 3.13 ppm active) | growth of Aureobasidium pullulans in 96-well plates ([1]; well 6, 1.56 ppm active) | growth of Aureobasidium pullulans in 96-well plates ([1]; well 7, 0.78 ppm active) | growth of Aureobasidium pullulans in 96-well plates ([1]; well 8, 0.39 ppm active) | growth of Aureobasidium pullulans in 96-well plates ([1]; well 9, 0.20 ppm active) | growth of Aureobasidium pullulans in 96-well plates ([1]; well 10, 0.10 ppm active) | growth of Aureobasidium pullulans in 96-well plates ([1]; well 11, 0.05 ppm active) | growth of Aureobasidium pullulans in 96-well plates ([1]; well 12, 0.02 ppm active) | MIC [2] [ppm] | growth of Trichoderma pseudokoningii in 96-well plates ([2]; well 1, 50.00 ppm active) | growth of Trichoderma pseudokoningii in 96-well plates ([2]; well 2, 25.00 ppm active) | growth of Trichoderma pseudokoningii in 96-well plates ([2]; well 3, 12.50 ppm active) | growth of Trichoderma pseudokoningii in 96-well plates ([2]; well 4, 6.25 ppm active) | growth of Trichoderma pseudokoningii in 96-well plates ([2]; well 5, 3.13 ppm active) | growth of Trichoderma pseudokoningii in 96-well plates ([2]; well 6, 1.56 ppm active) | further results
CCCCNC(=O)OCC#CI [IPBC, 3-iodo-2-propynyl butyl carbamate] | 25.00 | − | − | + | + | + | + | + | + | + | + | + | + | 6.25 | − | − | − | − | + | + | growth of Trichoderma pseudokoningii in 96-well plates ([2]; well 7, 0.78 ppm active): +; growth of Trichoderma pseudokoningii in 96-well plates ([2]; well 8, 0.39 ppm active): +; growth of Trichoderma pseudokoningii in 96-well plates ([2]; well 9, 0.20 ppm active): +; growth of Trichoderma pseudokoningii in 96-well plates ([2]; well 10, 0.10 ppm active): +; growth of Trichoderma pseudokoningii in 96-well plates ([2]; well 11, 0.05 ppm active): +; growth of Trichoderma pseudokoningii in 96-well plates ([2]; well 12, 0.02 ppm active): +; MIC [3]: 0.78 ppm; growth of Penicillium funiculosum in 96-well plates ([3]; well 1, concentration 50.00): −; growth of Penicillium funiculosum in 96-well plates ([3]; well 2, concentration 25.00): −; growth of Penicillium funiculosum in 96-well plates ([3]; well 3, concentration 12.50): −; growth of Penicillium funiculosum in 96-well plates ([3]; well 4, concentration 6.25): −; growth of Penicillium funiculosum in 96-well plates ([3]; well 5, concentration 3.13): −; growth of Penicillium funiculosum in 96-well plates ([3]; well 6, concentration 1.56): −; growth of Penicillium funiculosum in 96-well plates ([3]; well 7, concentration 0.78): −; growth of Penicillium funiculosum in 96-well plates ([3]; well 8, concentration 0.39): +; growth of Penicillium funiculosum in 96-well plates ([3]; well 9, concentration 0.20): +; growth of Penicillium funiculosum in 96-well plates ([3]; well 11, concentration 0.05): +; growth of Penicillium funiculosum in 96-well plates ([3]; well 12, concentration 0.02): +
didecyl bis(hydroxyethyl) ammonium borate [DPAB] | 12.5 | − | − | − | + | + | + | + | + | + | + | + | + | 25.00 | − | − | + | + | + | + | growth of Trichoderma pseudokoningii in 96-well plates ([2]; well 7, 0.78 ppm active): +; growth of Trichoderma pseudokoningii in 96-well plates ([2]; well 8, 0.39 ppm active): +; growth of Trichoderma pseudokoningii in 96-well plates ([2]; well 9, 0.20 ppm active): +; growth of Trichoderma pseudokoningii in 96-well plates ([2]; well 10, 0.10 ppm active): +; growth of Trichoderma pseudokoningii in 96-well plates ([2]; well 11, 0.05 ppm active): +; growth of Trichoderma pseudokoningii in 96-well plates ([2]; well 12, 0.02 ppm active): +; MIC [3]: 6.25 ppm; growth of Penicillium funiculosum in 96-well plates ([3]; well 1, concentration 50.00): −; growth of Penicillium funiculosum in 96-well plates ([3]; well 2, concentration 25.00): −; growth of Penicillium funiculosum in 96-well plates ([3]; well 3, concentration 12.50): −; growth of Penicillium funiculosum in 96-well plates ([3]; well 4, concentration 6.25): −; growth of Penicillium funiculosum in 96-well plates ([3]; well 5, concentration 3.13): +; growth of Penicillium funiculosum in 96-well plates ([3]; well 6, concentration 1.56): +; growth of Penicillium funiculosum in 96-well plates ([3]; well 7, concentration 0.78): +; growth of Penicillium funiculosum in 96-well plates ([3]; well 8, concentration 0.39): +; growth of Penicillium funiculosum in 96-well plates ([3]; well 9, concentration 0.20): +; growth of Penicillium funiculosum in 96-well plates ([3]; well 10, concentration 0.10): +; growth of Penicillium funiculosum in 96-well plates ([3]; well 11, concentration 0.05): +; growth of Penicillium funiculosum in 96-well plates ([3]; well 12, concentration 0.02): +
